Two compounds from patent publication US5674911A, “Antiinfective polyoxypropylene/polyoxyethylene copolymers and methods of use” (Cytrx Corporation, priority 1995, dated 1997) can be followed below.

SMILES strings stand for the structures.

Data set [1] relates to Vero cells. Put plainly: growth / cytotoxicity in Vero cells. Particulars: Chlorocebus sabaeus, Vero, 96 h, read-out: % Growth inhibition, Vero.
The nature of data set [2]: growth / cytotoxicity in Vero cells. Conditions: african green monkey, vero cells.
Data set [3] in a line: in vitro. Particulars: human, pha-stimulated pbmc.
Data set [4] relates to HIV-1 (strain LAV-1). Put plainly: anti-HIV-1 assay in PBMC (reverse transcriptase activity). The class given is cell-based. Conditions: Human immunodeficiency virus 1, PBMC, 144 h, read-out: Anti-HIV-1 in PBMC: EC50.
The subject of data set [5] is human peripheral blood mononuclear cells (PBMC). Put plainly: growth / cytotoxicity in uninfected mitogen stimulated human PBMC. Conditions: 144 h, read-out: % Growth inhibition, PBMC.
In data set [6] the test system is Mycobacterium avium. Kind of data set: growth index of Mycobacterium avium in Bactec 7H12 Middlebrook broth (14C fatty acid). Conditions: 0.04 μg/ml (FIG. 35).

As to `Cc1cn([C@H]2C[C@H](N=[N+]=[N-])[C@@H](CO)O2)c(=O)[nH]c1=O` [AZT, azidothymidine], in data set [1], the inhibition at 0.1 µM is -1.8%, the inhibition at 1 µM turned out to be 10.2%, the inhibition at 10 µM is 20.7% and the inhibition at 50 µM worked out at 47.4%. Further, the inhibition at 100 µM in data set [1] is 66.3%. Further, in data set [2], the CC50 at 96 h was 50.6 µM. In data set [3], the CC50 at 144 h was more than 100 µM. Further, in data set [4], the EC50 is 5.6 nM. Further, in data set [5], the inhibition at 0.1 µM is -8.9%, the inhibition at 1 µM is -2.2%, the inhibition at 10 µM was found to be 5.5% and the inhibition at 50 µM was 16.8%. Moreover, in data set [5], the inhibition at 100 µM amounted to 28.4%.
With `CO[C@H]1/C=C/O[C@@]2(C)Oc3c(C)c(O)c4c(O)c(c(/C=N/N5CCN(C)CC5)c(O)c4c3C2=O)NC(=O)/C(C)=C\C=C\[C@H](C)[C@H](O)[C@@H](C)[C@@H](O)[C@@H](C)[C@H](OC(C)=O)[C@@H]1C` [Rifampin, rifampin], the “inhibiting growth of M. avium” value in data set [6] is listed as “effective in inhibiting growth”.
